Test results published in ChEMBL document CHEMBL3259561, “Search for novel histone deacetylase inhibitors. Part II: design and synthesis of novel isoferulic acid derivatives” (Bioorg Med Chem, 2014).

Experiments:
[1] = target: Histone deacetylase; test: Inhibition of HDAC in human HeLa cell nuclear extract using acetylated lysine as substrate after 30 mins by spectrophotometric analysis; assay type: protein assay
[2] = tested on: MDA-MB-231; test: cells; assay type: functional, cell-based; details: Homo sapiens, MDA-MB-231, 48 h
Description: Growth inhibition of human MDA-MB-231 cells after 48 hrs by MTT assay

[3] = tested on: HeLa; test: cells; assay type: functional, cell-based; details: Homo sapiens, 48 h
Description: Growth inhibition of human HeLa cells after 48 hrs by MTT assay

| SMILES | IC50 [1] [µM] | IC50 [2] [µM] | IC50 [3] [µM] |
| --- | --- | --- | --- |
| COc1ccc(/C=C/C(=O)NO)cc1OCC(=O)Nc1ccc(F)c(Cl)c1 | 5.82 |  |  |
| COc1ccc(/C=C/C(=O)NO)cc1OCC(=O)Nc1cccc(C(F)(F)F)c1 | 2.96 |  |  |
| COc1ccc(/C=C/C(=O)NO)cc1OCC(=O)Nc1ccc(Cl)c(Cl)c1 | 1.37 | 1.9 | 13.3 |
| COc1ccc(NC(=O)COc2cc(/C=C/C(=O)NO)ccc2OC)cc1 | 0.94 | 3.81 | 4.87 |
| COc1ccc(/C=C/C(=O)NO)cc1OCC(=O)Nc1ccc(Br)cc1 | 0.73 | 5.87 | 5.39 |
| COc1ccc(/C=C/C(=O)NO)cc1OCC(=O)Nc1ccccc1F | 0.57 | 15.6 | 3.91 |
| COc1ccc(/C=C/C(=O)NO)cc1OCC(=O)Nc1cccc(F)c1 | 2.81 | 3.41 | 6.48 |
| COc1ccc(/C=C/C(=O)NO)cc1OCC(=O)Nc1cc(C(F)(F)F)cc(C(F)(F)F)c1 | 4.91 |  |  |
| COc1ccc(/C=C/C(=O)NO)cc1OCC(=O)Nc1cc(Br)cc(C(F)(F)F)c1 | 9.04 |  |  |
| COc1ccc(/C=C/C(=O)Nc2ccccc2N)cc1OCC(=O)Nc1ccc(F)c(Cl)c1 | 66.52 |  |  |
| COc1ccc(/C=C/C(=O)Nc2ccccc2N)cc1OCC(=O)Nc1cccc(C(F)(F)F)c1 | 22.16 |  |  |
| COc1ccc(/C=C/C(=O)Nc2ccccc2N)cc1OCC(=O)Nc1ccc(Cl)c(Cl)c1 | > 200 |  |  |
| COc1ccc(NC(=O)COc2cc(/C=C/C(=O)Nc3ccccc3N)ccc2OC)cc1 | 49.3 |  |  |
| COc1ccc(/C=C/C(=O)Nc2ccccc2N)cc1OCC(=O)Nc1ccc(Br)cc1 | > 200 |  |  |
| COc1ccc(/C=C/C(=O)Nc2ccccc2N)cc1OCC(=O)Nc1ccccc1F | 15.6 | 15.5 | 20.5 |
| COc1ccc(/C=C/C(=O)Nc2ccccc2N)cc1OCC(=O)Nc1cccc(F)c1 | 24.01 |  |  |
| COc1ccc(/C=C/C(=O)Nc2ccccc2N)cc1OCC(=O)Nc1cc(C(F)(F)F)cc(C(F)(F)F)c1 | > 200 |  |  |
| COc1ccc(/C=C/C(=O)Nc2ccccc2N)cc1OCC(=O)Nc1cc(Br)cc(C(F)(F)F)c1 | > 200 |  |  |
| COc1ccc(/C=C/C(=O)Nc2ccc(C)cc2N)cc1OCC(=O)Nc1ccc(F)c(Cl)c1 | 31.32 |  |  |
| COc1ccc(/C=C/C(=O)Nc2ccc(C)cc2N)cc1OCC(=O)Nc1cccc(C(F)(F)F)c1 | > 200 |  |  |
| COc1ccc(/C=C/C(=O)Nc2ccc(C)cc2N)cc1OCC(=O)Nc1ccc(Cl)c(Cl)c1 | > 200 |  |  |
| COc1ccc(NC(=O)COc2cc(/C=C/C(=O)Nc3ccc(C)cc3N)ccc2OC)cc1 | 164.61 |  |  |
| COc1ccc(/C=C/C(=O)Nc2ccc(C)cc2N)cc1OCC(=O)Nc1ccc(Br)cc1 | 58.24 |  |  |
| COc1ccc(/C=C/C(=O)Nc2ccc(C)cc2N)cc1OCC(=O)Nc1ccccc1F | 29.5 |  |  |
| COc1ccc(/C=C/C(=O)Nc2ccc(C)cc2N)cc1OCC(=O)Nc1cccc(F)c1 | 71.02 |  |  |
| COc1ccc(/C=C/C(=O)Nc2ccc(C)cc2N)cc1OCC(=O)Nc1cc(C(F)(F)F)cc(C(F)(F)F)c1 | 56.71 |  |  |
| COc1ccc(/C=C/C(=O)Nc2ccc(C)cc2N)cc1OCC(=O)Nc1cc(Br)cc(C(F)(F)F)c1 | 124.67 |  |  |
